Assay results: patent publication US12240867B2, “Arginase inhibitors and methods of use” (Merck Sharp & Dohme LLC, priority 2018, dated 2025)
pIC50: −log10 of the molar value. Read-outs that look alike come from different tables or passages of the source. Blank lines part the entries; values can stand above or below the compound they belong to.

How the values were obtained:
Arginase = target: T1, Arginase (Homo sapiens, UniProt P05089); experiment: Arginase Thioornithine Generating Assay (TOGA); assay type: biochemical
T1 sequence (P05089 1-322): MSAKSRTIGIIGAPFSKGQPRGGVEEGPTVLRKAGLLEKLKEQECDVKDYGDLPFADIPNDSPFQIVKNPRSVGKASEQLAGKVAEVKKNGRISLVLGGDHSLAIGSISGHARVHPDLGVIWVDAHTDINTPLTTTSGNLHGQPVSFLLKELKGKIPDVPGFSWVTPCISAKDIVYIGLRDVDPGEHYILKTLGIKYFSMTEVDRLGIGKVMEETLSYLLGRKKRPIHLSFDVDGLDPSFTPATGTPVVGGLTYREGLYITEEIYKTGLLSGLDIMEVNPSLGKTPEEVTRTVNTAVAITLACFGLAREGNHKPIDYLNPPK
Procedure: Arginase Thioornithine Generating Assay (TOGA)
Compounds were serially diluted in ten 3-fold steps in DMSO starting from 10 mM DMSO stocks. Compound dilutions or DMSO alone were then dispensed from the dilution plate into a Greiner black 384-well assay plate (catalog #781086) using an Echo 555 acoustic liquid handler (Labcyte).
Arginase protein was recombinantly expressed in Escherichia coli. Purified protein was then diluted in assay buffer (50 mM Tris pH 7.5, 50 mM NaCl, 1 mM manganese chloride, 0.0500 bovine serum albumin to obtain a final Arginase concentration of 1.88 nM. Arginase solution ([…])) or buffer alone (20 μL) were dispensed to wells of the assay plate using a BioRAPTR liquid dispenser (Beckman Coulter). Assay plates containing compound and arginase enzyme were incubated at room temperature for 30 minutes. Afterwards, 5 µL of 2.5 mM thioarginine (Cayman Chemicals) in assay buffer were added to each well of the assay plate using a BioRAPTR liquid dispenser. Plates were incubated at room temperature for 60 minutes and reactions were quenched by addition of 15 μL of 200 uM 7-Diethylamine-3-(4-maleimidophenyl)-4-methyl coumarin (Sigma Chemical) in 70% ethanol. Plates were briefly shaken to mix and the fluorescence was measured in an Spectramax plate reader (Molecular Devices) with a 410 nm excitation wavelength and an 490 nm emission wavelength.
Potencies were calculated by […] least squares fit to the four parameter logistic IC50 equation.

[1] = system: corpus cavernosum of the diabetic man; conditions: ex vivo; cited from earlier work
live male rabbits = conditions: cited from earlier work
[2] = system: opossum internal anal sphincter muscle; conditions: cited from earlier work
[3] = system: experimental autoimmune encephalomyelitis; conditions: experimental autoimmune encephalomyelitis animal model; cited from earlier work
penile corpus cavernosum = conditions: rabbit and human penile corpus cavernosum; cited from earlier work
live female rabbits = conditions: cited from earlier work
allergic asthma model = conditions: nebulizer treatment of guinea pigs; cited from earlier work
[4] = Top Dose 10000 nM, read-out: Percent Inhibition at Top Dose
[5] = read-out: Percent Inhibition at Top Dose, Top Dose 10000 nM

SMILES: O=C(O)C12CNCC1(CCCB(O)O)CCN2 (racemic) [Example 6, racemic 3a-(3-boronopropyl)hexahydropyrrolo[3,4-b]pyrrole-6a(H)-carboxylic acid]
inhibition at 10 µM (Arginase; [4]): 91.9%

SMILES: CN1CC2(CCCB(O)O)CCNC2(C(=O)O)C1 (racemic) [Example 7, Racemic 3a-(3-boronopropyl)-5-methylhexahydropyrrolo[3,4-b]pyrrole-6a(1H)-carboxylic acid]
inhibition at 10 µM (Arginase; [4]): 85.1%

SMILES: N[C@@H](CCCCB(O)O)C(=O)O [ABH, (S)-2-amino-6-boronohexanoic acid]
nitric oxide biosynthesis [1]: restores nitric oxide biosynthesis
erectile response (live male rabbits): enhances the erectile response
relaxation of internal anal sphincter muscle [2]: relax this muscle
disease score [3]: improves the disease score
nitric oxide-dependent relaxation of corpus cavernosum tissue (penile corpus cavernosum): enhances the nitric oxide-dependent relaxation of this tissue
engorgement response in the genitalia (live female rabbits): enhances the engorgement response
airway hyperresponsiveness (allergic asthma model): prevents airway hyperresponsiveness

SMILES: C[C@H](N)C(=O)N1C[C@@]2(CCCB(O)O)CCN[C@@]2(C(=O)O)C1 [Example 1, (3aR,6aR)-5-(L-alanyl)-3a-(3-boronopropyl)hexahydropyrrolo[3,4-b]pyrrole-6a(H)-carboxylic acid]
inhibition at 10 µM (Arginase; [5]): 99.7%

SMILES: NCC(=O)N1C[C@@]2(CCCB(O)O)CCN[C@@]2(C(=O)O)C1 [Example 3, (3aR,6aR)-3a-(3-boronopropyl)-5-glycylhexahydropyrrolo[3,4-b]pyrrole-6a(H)-carboxylic acid]
inhibition at 10 µM (Arginase; [5]): 89.5%

SMILES: O=C(O)[C@]12CNC[C@@]1(CCCB(O)O)CCN2 [Example 4, (3aR,6aR)-3a-(3-boronopropyl)hexahydropyrrolo[3,4-b]pyrrole-6a(1H)-carboxylic acid]
inhibition at 10 µM (Arginase; [4]): 98.2%
pIC50 (Arginase; recombinant arginase 1.88 nM, thioarginine substrate, fluorescence readout): 7.34

SMILES: O=C(O)[C@@]12CNC[C@]1(CCCB(O)O)CCN2 [Example 5, (3aS,6aS)-3a-(3-boronopropyl)hexahydropyrrolo[3,4-b]pyrrole-6a(H)-carboxylic acid]
inhibition at 10 µM (Arginase; [4]): 93%

inhibition at 10 µM (Arginase; [4]): 99%
SMILES: CC(C)[C@H](N)C(=O)N1C[C@@]2(CCCB(O)O)CCN[C@@]2(C(=O)O)C1 [Example 8, (3aR,6aR)-5-(L-valyl)-3a-(3-boronopropyl)hexahydropyrrolo[3,4-b]pyrrole-6a(H)-carboxylic acid]

SMILES: N[C@@H](CO)C(=O)N1C[C@@]2(CCCB(O)O)CCN[C@@]2(C(=O)O)C1 [Example 9, (3aR,6aR)-5-(L-seryl)-3a-(3-boronopropyl)hexahydropyrrolo[3,4-b]pyrrole-6a(1H)-carboxylic acid]
inhibition at 10 µM (Arginase; [5]): 97.3%

SMILES: O=C([C@@H]1CCCN1)N1C[C@@]2(CCCB(O)O)CCN[C@@]2(C(=O)O)C1 [Example 10, (3aR,6aR)-5-(L-prolyl)-3a-(3-boronopropyl)hexahydropyrrolo[3,4-b]pyrrole-6a(1H)-carboxylic acid]
inhibition at 10 µM (Arginase; [5]): 96.6%

SMILES: O=C(O)[C@]12CNC[C@@]1(CCCB(O)O)CN2 [Example 11, (1S,5R)-1-(3-boronopropyl)-3,6-diazabicyclo[3.2.0]heptane-5-carboxylic acid]
inhibition at 10 µM (Arginase; [4]): 99.5%

SMILES: NC[C@@H]1NC[C@]2(C(=O)O)NCC[C@]12CCCB(O)O [Example 12, (3aR,4R,6aR)-4-(aminomethyl)-3a-(3-boronopropyl)hexahydropyrrolo[3,4-b]pyrrole-6a(1H)-carboxylic acid]
inhibition at 10 µM (Arginase; [5]): 100%

inhibition at 10 µM (Arginase; [4]): 102%
SMILES: CSCC[C@H](N)C(=O)N1C[C@@]2(CCCB(O)O)CCN[C@@]2(C(=O)O)C1 [Example 13]

inhibition at 10 µM (Arginase; [4]): 102%
SMILES: CC(C)(C)[C@H](N)C(=O)N1C[C@@]2(CCCB(O)O)CCN[C@@]2(C(=O)O)C1 [Example 14]

inhibition at 10 µM (Arginase; [4]): 96.7%
SMILES: CC(C)C[C@H](N)C(=O)N1C[C@@]2(CCCB(O)O)CCN[C@@]2(C(=O)O)C1 [Example 15]

inhibition at 10 µM (Arginase; [4]): 97.3%
SMILES: CC(C)(N)C(=O)N1C[C@@]2(CCCB(O)O)CCN[C@@]2(C(=O)O)C1 [Example 16]

inhibition at 10 µM (Arginase; [4]): 97.8%
SMILES: COC[C@H](N)C(=O)N1C[C@@]2(CCCB(O)O)CCN[C@@]2(C(=O)O)C1 [Example 17]

inhibition at 10 µM (Arginase; [4]): 97.9%
SMILES: C[C@H](N)C(=O)N1C[C@@]2(CCCB3O[C@@H]4C[C@@H]5C[C@@H](C5(C)C)[C@]4(C)O3)CCN[C@@]2(C(=O)O)C1 [Example 18, (3aR,6aR)-5-(L-alanyl)-3a-(3-((3aS,4S,6S,7aR)-3a,5,5-trimethylhexahydro-4,6-methanobenzo[d][1,3,2]dioxaborol-2-yl)propyl)hexahydropyrrolo[3,4-b]pyrrole-6a(1H)-carboxylic acid]
